Test results as given in ChEMBL document CHEMBL5523739, “NN1213 - A Potent, Long-Acting, and Selective Analog of Human Amylin” (J Med Chem, 2024).
Converted amounts (≈) assume the structure as drawn. The source made the active and inactive calls. The calls are words filed in the database; no cut-off is given here.

Assays:
[1] = molecular target: T1, Amylin receptor AMY3; CALCR/RAMP3 (Rattus norvegicus, UniProt P32214+Q9JJ73); experiment: Agonist activity at rat AMY3R complex of CTR/RAMP3 expressed in Baby hamster kidney cells incubated for 3 hrs by cAMP assay; type: functional, cell-based, Baby hamster kidney cell
T1 sequence (P32214 whole entry): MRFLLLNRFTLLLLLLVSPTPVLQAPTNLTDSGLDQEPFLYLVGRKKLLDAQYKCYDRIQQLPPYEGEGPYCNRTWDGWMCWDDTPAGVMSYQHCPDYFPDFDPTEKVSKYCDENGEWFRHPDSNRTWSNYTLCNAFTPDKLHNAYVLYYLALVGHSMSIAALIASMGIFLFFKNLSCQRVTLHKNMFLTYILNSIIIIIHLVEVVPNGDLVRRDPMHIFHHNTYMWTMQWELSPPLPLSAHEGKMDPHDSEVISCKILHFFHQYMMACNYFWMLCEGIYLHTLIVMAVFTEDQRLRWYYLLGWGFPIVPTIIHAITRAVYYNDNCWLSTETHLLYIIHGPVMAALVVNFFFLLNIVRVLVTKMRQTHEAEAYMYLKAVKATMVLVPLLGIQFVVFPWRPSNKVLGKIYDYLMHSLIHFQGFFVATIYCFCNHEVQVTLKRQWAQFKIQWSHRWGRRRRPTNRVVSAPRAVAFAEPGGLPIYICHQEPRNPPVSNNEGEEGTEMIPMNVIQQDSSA
T1 sequence (Q9JJ73 whole entry): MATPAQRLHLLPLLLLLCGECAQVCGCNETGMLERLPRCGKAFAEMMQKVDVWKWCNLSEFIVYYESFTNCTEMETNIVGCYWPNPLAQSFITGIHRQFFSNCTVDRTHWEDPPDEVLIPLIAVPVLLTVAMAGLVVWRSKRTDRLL

[2] = molecular target: T2, Amylin receptor AMY3; CALCR/RAMP3 (Homo sapiens, UniProt O60896+P30988); experiment: Displacement of 125I-rat amylin from human AMY3R complex of CTR/RAMP3 expressed in Baby hamster kidney cell membrane incubated for 120 mins by SPA method; type: cell membranes
T2 sequence (P30988 whole entry): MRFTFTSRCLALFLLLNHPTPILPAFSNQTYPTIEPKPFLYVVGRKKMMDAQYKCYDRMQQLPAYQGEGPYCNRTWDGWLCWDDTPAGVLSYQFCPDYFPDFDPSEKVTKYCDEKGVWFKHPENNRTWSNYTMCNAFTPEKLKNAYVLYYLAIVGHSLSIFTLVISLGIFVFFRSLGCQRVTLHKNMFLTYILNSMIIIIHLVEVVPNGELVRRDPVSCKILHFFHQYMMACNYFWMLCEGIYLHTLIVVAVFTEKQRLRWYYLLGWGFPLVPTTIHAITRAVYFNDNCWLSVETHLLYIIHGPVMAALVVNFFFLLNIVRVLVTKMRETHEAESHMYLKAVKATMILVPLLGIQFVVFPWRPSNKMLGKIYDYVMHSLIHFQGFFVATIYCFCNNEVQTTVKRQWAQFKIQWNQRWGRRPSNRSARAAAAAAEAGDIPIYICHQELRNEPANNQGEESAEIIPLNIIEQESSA
T2 sequence (O60896 whole entry): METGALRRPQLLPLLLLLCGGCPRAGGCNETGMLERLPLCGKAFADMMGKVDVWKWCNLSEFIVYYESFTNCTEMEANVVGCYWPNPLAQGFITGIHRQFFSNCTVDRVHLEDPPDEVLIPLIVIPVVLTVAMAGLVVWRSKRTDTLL

Calcitonin receptor = molecular target: T3, Calcitonin receptor (Homo sapiens, UniProt P30988); experiment: Displacement of 125I-Calcitonin from human CTR expressed in Baby hamster kidney cell membrane incubated for 120 mins by SPA method; type: cell membranes
T3 sequence (P30988 whole entry): T2 sequence (P30988 whole entry)

[3] = molecular target: T1, Amylin receptor AMY3; CALCR/RAMP3; experiment: Displacement of 125I-rat amylin from rat AMY3R complex of CTR/RAMP3 expressed in Baby hamster kidney cell membrane incubated for 120 mins by SPA method; type: cell membranes
[4] = Solubility of compound at pH 3 incubated overnight by UPLC analysis; type: physicochemical; conditions: buffer
[5] = Solubility of compound at pH 4 incubated overnight by UPLC analysis; type: physicochemical; conditions: buffer
[6] = Solubility of compound at pH 7 incubated overnight by UPLC analysis; type: physicochemical; conditions: buffer
[7] = Solubility of compound at pH 8 incubated overnight by UPLC analysis; type: physicochemical; conditions: buffer
[8] = Stability against amyloid fibril formation at pH 7.5 assessed as compound recovery at 1 uM measured after 45 hrs by ThT assay; type: physicochemical; conditions: pH 7.5, 45 h
[9] = molecular target: Amylin receptor AMY1, CALCR/RAMP1 (Homo sapiens, UniProt O60894+P30988); experiment: Agonist activity at human AMY1R complex of CTR/RAMP1 transduced in human HeLa cells by cAMP assay; type: functional, cell-based
Sequence of Amylin receptor AMY1, CALCR/RAMP1 (O60894 whole entry, one chain of several): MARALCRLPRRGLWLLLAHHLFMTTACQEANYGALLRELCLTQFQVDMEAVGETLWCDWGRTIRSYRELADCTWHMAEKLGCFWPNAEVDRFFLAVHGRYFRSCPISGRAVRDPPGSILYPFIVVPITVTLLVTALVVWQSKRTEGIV

[10] = molecular target: Amylin receptor AMY2; CALCR/RAMP2 (Homo sapiens, UniProt O60895+P30988); experiment: Agonist activity at human AMY2R complex of CTR/RAMP2 transduced in human HeLa cells by cAMP assay; type: functional, cell-based
Sequence of Amylin receptor AMY2; CALCR/RAMP2 (O60895 whole entry, one chain of several): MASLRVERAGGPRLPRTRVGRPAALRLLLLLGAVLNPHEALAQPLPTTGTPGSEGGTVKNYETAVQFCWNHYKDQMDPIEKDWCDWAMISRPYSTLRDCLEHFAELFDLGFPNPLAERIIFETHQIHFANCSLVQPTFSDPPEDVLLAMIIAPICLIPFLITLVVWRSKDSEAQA

[11] = Terminal half life in rabbit at 2 nmol/kg, iv; type: ADME, Oryctolagus cuniculus; conditions: in vivo, read-out: beta t1/2 (converted)
[12] = Terminal half life in Gottingen minipig at 4.8 nmol/kg, iv; type: ADME, Sus scrofa; conditions: pig, in vivo, read-out: beta t1/2 (converted)
Rattus norvegicus [13] = experiment: Appetite suppressing activity in rat assessed as reduction in food intake administered subcutaneously measured for 48 hrs; type: functional, organism-based; conditions: dose 3-100 nmol/kg, route sc
Rattus norvegicus [14] = experiment: Appetite suppressing activity in rat assessed as reduction in food intake at 3 nmol/kg, sc measured after 48 hrs relative to control; type: functional; design: scale not given: the % may be the effect or the level left
Canis familiaris [15] = experiment: Appetite suppressing activity in dog assessed as reduction in food intake at 300 nmol/kg, sc measured for 48 hrs relative to control; type: functional, Canis lupus familiaris; design: scale not given: the % may be the effect or the level left
Canis familiaris [16] = experiment: Appetite suppressing activity in dog assessed as reduction in food intake at 30 nmol/kg, sc measured upto 7 days; type: functional, organism-based; conditions: Canis lupus familiaris, time <= 7.0 day
[17] = Toxicity in dog assessed as sign of discomfort at 3 to 300 nmol/kg, sc; design: species or system Canis lupus familiaris; conditions: in vivo, dose 3-300 nmol/kg
[18] = Toxicity in dog assessed as vomiting at 3 to 300 nmol/kg, sc; design: species or system Canis lupus familiaris; conditions: in vivo, dose 3-300 nmol/kg
Rattus norvegicus [19] = experiment: Appetite suppressing activity in HFD-fed DIO rat model assessed as reduction in body weight at 2.2 to 22 nmol/kg, sc qd measured for 21 days relative to control; type: functional; design: scale not given: the % may be the effect or the level left; conditions: dose 2.2-22 nmol/kg, time 21 day
Rattus norvegicus [20] = experiment: Appetite suppressing activity in HFD-fed DIO rat model assessed as reduction in body weight at 0.7 to 22 nmol/kg, sc qd measured after 15 days; type: functional, organism-based; conditions: dose 0.7-22 nmol/kg, time 15.0 day
Rattus norvegicus [21] = experiment: Appetite suppressing activity in HFD-fed DIO rat model assessed as reduction in food intake at 0.7 to 22 nmol/kg, sc qd measured after 15 days; type: functional, organism-based; conditions: dose 0.7-22 nmol/kg, time 15.0 day
Rattus norvegicus [22] = experiment: Appetite suppressing activity in HFD-fed DIO rat model assessed as body weight lost at 22 nmol/kg, sc qd measured after 21 days; type: functional; conditions: time 21 day
Rattus norvegicus [23] = experiment: Appetite suppressing activity in HFD-fed DIO rat model assessed as reduction in fat mass administered subcutaneously once daily measured after 21 days; type: functional, organism-based; conditions: dose 0.7-22 nmol/kg, route sc, time 21.0 day
Rattus norvegicus [24] = experiment: Effect on lean mass of HFD-fed DIO rat model at 0.7 to 22 nmol/kg, sc qd measured after 21 days; type: functional, organism-based; conditions: dose 0.7-22 nmol/kg, time 21.0 day

EC50 [1]: 0.262 nM
IC50 [2]: 0.561 nM
IC50 (Calcitonin receptor): 42 nM
IC50 [3]: 0.29 nM
solubility [4]: ≥ 200 µM
solubility [5]: ≥ 200 µM
solubility [6]: 155 µM (≈ 615 µg/mL)
solubility [7]: 110 µM (≈ 437 µg/mL)
Drug recovery [8]: 96%
EC50 [9]: 0.0575 nM
EC50 [10]: 0.182 nM
half-life [11]: ~50 h
half-life [12]: ~115 h
Compound: CC[C@H](C)[C@H](NC(=O)[C@H](C)NC(=O)CNC(=O)[C@H](Cc1ccccc1)NC(=O)[C@H](CC(N)=O)NC(=O)[C@@H]1CCCN1C(=O)[C@H](CO)NC(=O)[C@H](CO)NC(=O)[C@H](Cc1c[nH]cn1)NC(=O)[C@H](CCCNC(=N)N)NC(=O)[C@H](CC(C)C)NC(=O)[C@H](Cc1ccccc1)NC(=O)[C@H](CC(=O)O)NC(=O)[C@H](C)NC(=O)[C@H](CC(C)C)NC(=O)[C@H](CCCNC(=N)N)NC(=O)[C@H](CCC(N)=O)NC(=O)[C@@H](NC(=O)[C@H](C)NC(=O)[C@@H]1CSSC[C@H](NC(=O)[C@@H](N)CCCCN)C(=O)N[C@@H](CC(N)=O)C(=O)N[C@@H]([C@@H](C)O)C(=O)N[C@@H](C)C(=O)N[C@@H]([C@@H](C)O)C(=O)N1)[C@@H](C)O)C(=O)N1CCC[C@H]1C(=O)N[C@@H](CO)C(=O)N[C@@H](CO)C(=O)N[C@H](C(=O)N[C@@H](CC(N)=O)C(=O)N[C@H](C(=O)NCC(=O)N[C@@H](CO)C(=O)N[C@@H](CCCNC(=N)N)C(=O)N[C@H](C(=O)N[C@@H](Cc1ccc(O)cc1)C(N)=O)[C@@H](C)O)C(C)C)[C@@H](C)O
Activity (Rattus norvegicus [13]): Dose-Dependent Effect
Activity (Rattus norvegicus [14]): 15%
Activity (Canis familiaris [15]): 90%
Activity (Canis familiaris [16]): Active
Activity [17]: Non-Toxic
Activity [18]: Non-Toxic
Activity (Rattus norvegicus [19]): 8.7%
Activity (Rattus norvegicus [20]): inactive
Activity (Rattus norvegicus [21]): inactive
Activity (Rattus norvegicus [22]): 69.6 g
Activity (Rattus norvegicus [23]): Dose-Dependent Effect
Activity (Rattus norvegicus [24]): inactive
